Key:
Assay type in all cases: cell-based
Aeromonas hydrophila = assay: MIC against Gram-negative bacteria: Aeromonas hydrophila; conditions: 5×10^5 CFU/mL; for MIC A. hydrophila: two-fold serial dilution
Outline: (§1)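 First, colonies from LB agar were grown in LB at 37° C, 185 rpm, to McFarland turbidity 0.5, then centrifuged and resuspended in fresh LB. Next, wells received 5×10^5 CFU/mL bacteria plus two-fold serially diluted EGF domain protein (triplicate). Finally, plates were shaken at 37° C and the no-growth concentration taken as MIC.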

Klebsiella pneumonia = assay: MIC against Gram-negative bacteria: Klebsiella pneumonia; conditions: 5×10^5 CFU/mL; for MIC K. pneumonia: two-fold serial dilution
Outline: as §1

E. coli DH5α = assay: Antibacterial activity: MIC and growth curve against E. coli DH5α in 96-well plate; conditions: minimal inhibitory concentration against E. coli DH5α; 96-well plate, 5×10^5 CFU/mL, 37° C., judged after 8 h
Outline: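 Log-phase bacteria (OD600 ~0.5) resuspended in LB at 5×10^5 CFU/mL, exposed to recombinant protein at 50, 25, 12.5 μg/mL final in triplicate, 37 °C shaking at 175 rpm. OD600 read every 30 min; MIC is lowest concentration showing no growth.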

Proteus vulgaris = assay: MIC against Gram-negative bacteria: Proteus vulgaris; conditions: 5×10^5 CFU/mL; for MIC P. vulgaris: two-fold serial dilution
Outline: as §1

E. coli BL21 = assay: MIC against Gram-negative bacteria: E. coli BL21; conditions: 5×10^5 CFU/mL; for MIC E. coli BL21: two-fold serial dilution
Outline: as §1

Serratia marcescens = assay: MIC against Gram-negative bacteria: Serratia marcescens; conditions: 5×10^5 CFU/mL; for MIC S. marcescens: two-fold serial dilution
Outline: as §1

Enterobacter cloacae = assay: MIC against Gram-negative bacteria: Enterobacter cloacae; conditions: 5×10^5 CFU/mL; for MIC E. cloacae: two-fold serial dilution
Outline: as §1

Proteus mirabilis = assay: MIC against Gram-negative bacteria: Proteus mirabilis; conditions: 5×10^5 CFU/mL; for MIC P. mirabilis: two-fold serial dilution
Outline: as §1

Pseudomonas aeruginosa = assay: MIC against Gram-negative bacteria: Pseudomonas aeruginosa; conditions: 5×10^5 CFU/mL; for MIC P. aeruginosa: two-fold serial dilution
Outline: as §1

Moraxella catarrhalis = assay: MIC against Gram-negative bacteria: Moraxella catarrhalis; conditions: 5×10^5 CFU/mL; for MIC M. catarrhalis: two-fold serial dilution
Outline: as §1

Citrobacter diversus = assay: MIC against Gram-negative bacteria: Citrobacter diversus; conditions: 5×10^5 CFU/mL; for MIC C. diversus: two-fold serial dilution
Outline: as §1

[1] = A. hydrophila, 10 h cultivation at 37° C.
[2] = K. pneumonia, 10 h cultivation at 37° C.
[3] = P. vulgaris, 10 h cultivation at 37° C.
[4] = E. coli BL21, 10 h cultivation at 37° C.
[5] = S. marcescens, 10 h cultivation at 37° C.
[6] = E. cloacae, 10 h cultivation at 37° C.
[7] = P. mirabilis, 10 h cultivation at 37° C.
[8] = P. aeruginosa, 10 h cultivation at 37° C.
[9] = M. catarrhalis, 10 h cultivation at 37° C.
[10] = C. diversus, 10 h cultivation at 37° C.
[11] = Aeromonas hydrophila, 10 h cultivation at 37° C.
[12] = Klebsiella pneumonia, 10 h cultivation at 37° C.
[13] = Proteus vulgaris, 10 h cultivation at 37° C.
[14] = Serratia marcescens, 10 h cultivation at 37° C.
[15] = Enterobacter cloacae, 10 h cultivation at 37° C.
[16] = Proteus mirabilis, 10 h cultivation at 37° C.
[17] = Pseudomonas aeruginosa, 10 h cultivation at 37° C.
[18] = Moraxella catarrhalis, 10 h cultivation at 37° C.
[19] = Citrobacter diversus, 10 h cultivation at 37° C.

Substance | MIC (μg/mL) A. hydrophila (Aeromonas hydrophila; [1]) [µg/mL] | MIC (μg/mL) K. pneumonia (Klebsiella pneumonia; [2]) [µg/mL] | MIC (E. coli DH5α) [µg/mL] | MIC (μg/mL) P. vulgaris (Proteus vulgaris; [3]) [µg/mL] | MIC (μg/mL) E. coli BL21 (E. coli BL21; [4]) [µg/mL] | MIC (μg/mL) S. marcescens (Serratia marcescens; [5]) [µg/mL] | MIC (μg/mL) E. cloacae (Enterobacter cloacae; [6]) [µg/mL] | MIC (μg/mL) P. mirabilis (Proteus mirabilis; [7]) [µg/mL] | MIC (μg/mL) P. aeruginosa (Pseudomonas aeruginosa; [8]) [µg/mL] | MIC (μg/mL) M. catarrhalis (Moraxella catarrhalis; [9]) [µg/mL] | MIC (μg/mL) C. diversus (Citrobacter diversus; [10]) [µg/mL] | also measured
PRT832 (DVDECAAGLAQCAHGCLNTQGSFKCVCHAGYELGADGRQCY; listed as Homo sapiens) | 12.5 | 12.5 | 50 | 25 | 12.5 | 12.5 | 25 | 12.5 | 12.5 | 12.5 | 25 | 
PRT759 (RVDYCLLSDHGCEYSCVNMDRSFACQCPEGHVLRSDGKTCA; listed as Homo sapiens) | 12.5 | 12.5 | 25 | 12.5 | 12.5 | 25 | 12.5 | 12.5 | 25 | 25 | 12.5 | 
PRT786 (YGKDCALICQCQNGADCDHISGQCTCRTGFMGRHCE; listed as Homo sapiens) | 12.5 | 50 | 50 | 12.5 | 25 | 12.5 | 12.5 | 25 | 12.5 | 12.5 | 25 | 
PRT433 (DIDECRYGYCQQLCANVPGSYSCTCNPGFTLNEDGRSCQ; listed as Homo sapiens) |  |  | 12.5 |  |  |  |  |  |  |  |  | MIC (Aeromonas hydrophila; [1]): 12.5 µg/mL; MIC (Klebsiella pneumonia; [2]): 12.5 µg/mL; MIC (Proteus vulgaris; [3]): 12.5 µg/mL; MIC (E. coli BL21; [4]): 25 µg/mL; MIC (Serratia marcescens; [5]): 50 µg/mL; MIC (Enterobacter cloacae; [6]): 50 µg/mL; MIC (Proteus mirabilis; [7]): 50 µg/mL; MIC (Pseudomonas aeruginosa; [8]): 12.5 µg/mL; MIC (Moraxella catarrhalis; [9]): 12.5 µg/mL; MIC (Citrobacter diversus; [10]): 50 µg/mL
PRT825 (FGPNCTHVCGCGQGAACDPVTGTCLCPPGRAGVRCE; listed as Homo sapiens) | 12.5 | 50 | 25 | 50 | 12.5 | 25 | 25 | 12.5 | 25 | 50 | 25 | 
PRT1191 (AEHACTSNPCANGGSCHEVPSGFECHCPSGWSGPTCA; listed as Homo sapiens) |  |  | 12.5 |  |  |  |  |  |  |  |  | MIC A. hydrophila (Aeromonas hydrophila; 10 h cultivation at 37° C.): 25 µg/mL; MIC K. pneumonia (Klebsiella pneumonia; 10 h cultivation at 37° C.): 25 µg/mL; MIC P. vulgaris (Proteus vulgaris; 10 h cultivation at 37° C.): 12.5 µg/mL; MIC E. coli BL21 (E. coli BL21; 10 h cultivation at 37° C.): 25 µg/mL; MIC S. marcescens (Serratia marcescens; 10 h cultivation at 37° C.): 50 µg/mL; MIC E. cloacae (Enterobacter cloacae; 10 h cultivation at 37° C.): 25 µg/mL; MIC P. mirabilis (Proteus mirabilis; 10 h cultivation at 37° C.): 25 µg/mL; MIC P. aeruginosa (Pseudomonas aeruginosa; 10 h cultivation at 37° C.): 50 µg/mL; MIC M. catarrhalis (Moraxella catarrhalis; 10 h cultivation at 37° C.): 50 µg/mL; MIC C. diversus (Citrobacter diversus; 10 h cultivation at 37° C.): 12.5 µg/mL
PRT251 (FSHLCLEDHNSYCINGACAFHHELEKAICRCFTGYTGERCE; listed as Homo sapiens) | 12.5 | 12.5 | 25 | 12.5 | 12.5 | 12.5 | 25 | 12.5 | 25 | 12.5 | 25 | 
PRT479 (AAMACSHQRCHGHGRCARRDPGQMEAFLHLWPDGSLGDWKSFSCHCYWGWAGPTCQ; listed as Homo sapiens) |  |  | 25 |  |  |  |  |  |  |  |  | MIC against A. hydrophila (Aeromonas hydrophila; 96-well plate, 37° C., 10 h): 50 µg/mL; MIC against K. pneumonia (Klebsiella pneumonia; 96-well plate, 37° C., 10 h): 12.5 µg/mL; MIC against P. vulgaris (Proteus vulgaris; 96-well plate, 37° C., 10 h): 50 µg/mL; MIC against E. coli BL21 (E. coli BL21; 96-well plate, 37° C., 10 h): 50 µg/mL; MIC against S. marcescens (Serratia marcescens; 96-well plate, 37° C., 10 h): 25 µg/mL; MIC against E. cloacae (Enterobacter cloacae; 96-well plate, 37° C., 10 h): 25 µg/mL; MIC against P. mirabilis (Proteus mirabilis; 96-well plate, 37° C., 10 h): 25 µg/mL; MIC against P. aeruginosa (Pseudomonas aeruginosa; 96-well plate, 37° C., 10 h): 25 µg/mL; MIC against M. catarrhalis (Moraxella catarrhalis; 96-well plate, 37° C., 10 h): 12.5 µg/mL; MIC against C. diversus (Citrobacter diversus; 96-well plate, 37° C., 10 h): 25 µg/mL
PRT1154 (DGTACGYNTCRNGGECTVNGTTFSCRCLPDWAGNTCN; listed as Homo sapiens) |  |  | 50 |  |  |  |  |  |  |  |  | MIC A. hydrophila (Aeromonas hydrophila; 10 h cultivation at 37° C.): 100 µg/mL; MIC K. pneumonia (Klebsiella pneumonia; 10 h cultivation at 37° C.): 12.5 µg/mL; MIC P. vulgaris (Proteus vulgaris; 10 h cultivation at 37° C.): 12.5 µg/mL; MIC E. coli BL21 (E. coli BL21; 10 h cultivation at 37° C.): 12.5 µg/mL; MIC S. marcescens (Serratia marcescens; 10 h cultivation at 37° C.): 12.5 µg/mL; MIC E. cloacae (Enterobacter cloacae; 10 h cultivation at 37° C.): 25 µg/mL; MIC P. mirabilis (Proteus mirabilis; 10 h cultivation at 37° C.): 12.5 µg/mL; MIC P. aeruginosa (Pseudomonas aeruginosa; 10 h cultivation at 37° C.): 50 µg/mL; MIC M. catarrhalis (Moraxella catarrhalis; 10 h cultivation at 37° C.): 12.5 µg/mL; MIC C. diversus (Citrobacter diversus; 10 h cultivation at 37° C.): 12.5 µg/mL
PRT1493 (QQAECPGGCRNGGFCNERRICECPDGFHGPHCE; listed as Homo sapiens) |  |  | 100 |  |  |  |  |  |  |  |  | MIC against A. hydrophila (Aeromonas hydrophila; [11]): 50 µg/mL; MIC against K. pneumonia (Klebsiella pneumonia; [12]): 12.5 µg/mL; MIC against P. vulgaris (Proteus vulgaris; [13]): 25 µg/mL; MIC against E. coli BL21 (E. coli BL21; [4]): 25 µg/mL; MIC against S. marcescens (Serratia marcescens; [14]): 50 µg/mL; MIC against E. cloacae (Enterobacter cloacae; [15]): 12.5 µg/mL; MIC against P. mirabilis (Proteus mirabilis; [16]): 50 µg/mL; MIC against P. aeruginosa (Pseudomonas aeruginosa; [17]): 12.5 µg/mL; MIC against M. catarrhalis (Moraxella catarrhalis; [18]): 25 µg/mL; MIC against C. diversus (Citrobacter diversus; [19]): 50 µg/mL
PRT1367 (YPACPENCSGHGECVRGVCQCHEDFMSEDCS; listed as Homo sapiens) |  |  | 25 |  |  |  |  |  |  |  |  | MIC against A. hydrophila (Aeromonas hydrophila; [11]): 50 µg/mL; MIC against K. pneumonia (Klebsiella pneumonia; [12]): 12.5 µg/mL; MIC against P. vulgaris (Proteus vulgaris; [13]): 50 µg/mL; MIC against E. coli BL21 (E. coli BL21; [4]): 50 µg/mL; MIC against S. marcescens (Serratia marcescens; [14]): 25 µg/mL; MIC against E. cloacae (Enterobacter cloacae; [15]): 25 µg/mL; MIC against P. mirabilis (Proteus mirabilis; [16]): 12.5 µg/mL; MIC against P. aeruginosa (Pseudomonas aeruginosa; [17]): 25 µg/mL; MIC against M. catarrhalis (Moraxella catarrhalis; [18]): 50 µg/mL; MIC against C. diversus (Citrobacter diversus; [19]): 12.5 µg/mL

— patent US9833497B2, “Human originated EGF domain proteins and use of the same” (CHENGDU SOURCEBIO LIMITED-LIABILITY COMPANY, priority 2013, dated 2017)
